Results from the C3SDB collision cross section collection.
Blank lines part the entries; values can stand above or below the compound they belong to.

Key:
[1] = [M+H]+; instrument: TW; Major Mix IMS/Tof Calibration Kit (Waters)
[2] = instrument: DT, single field, calibrated with Agilent tune mix (Agilent)
[3] = instrument: TW, calibrated with phosphatidylcholines (ESI+) and phosphatidylethanolamines (ESI-)
[4] = [M+H]+; instrument: DT; stepped-field

SMILES: CCCC(C(=O)c1ccc2c(c1)OCO2)N1CCCC1 (centres undefined) [MDPV]
- collision cross section (N2) [1]: 166.7 Å²

SMILES: COC(=O)C(c1ccccc1)C1CCCCN1 (centres undefined) [Methylphenidate]
- collision cross section (N2) [1]: 154.2 Å²

SMILES: CC(CN(C)C)CN1c2ccccc2Sc2ccccc21 (centres undefined) [Alimemazine]
- collision cross section (N2) [1]: 166.8 Å²

SMILES: O=C1CN=C(c2ccccc2)c2cc(Cl)ccc2N1CC1CC1 [Prazepam]
- collision cross section (N2) [1]: 174 Å²

SMILES: CN(C)CCCN1c2ccccc2CCc2ccc(Cl)cc21 [Clomipramine]
- collision cross section (N2) [1]: 174.3 Å²

SMILES: O=C1CN=C(c2ccccn2)c2cc(Br)ccc2N1 [Bromazepam]
- collision cross section (N2) [1]: 159.8 Å²

SMILES: Nc1ccc2c(c1)C(c1ccccc1)=NCC(=O)N2 [Nitrazepam-M 7-amino]
- collision cross section (N2) [1]: 158.1 Å²

SMILES: COc1ccc2cccc(CCNC(C)=O)c2c1 [Agomelatine]
- collision cross section (N2) [1]: 156.3 Å²

SMILES: CNC(=O)C(CCN1CCC(O)(c2ccc(Cl)cc2)CC1)(c1ccccc1)c1ccccc1 [Loperamide-M Desmethyl]
- collision cross section (N2) [1]: 218.7 Å²

SMILES: COc1cc(CNC(=O)CCCC/C=C/C(C)C)ccc1O [Capsaicin]
- collision cross section (N2) [1]: 183 Å²

SMILES: O=C1Nc2ccc(Cl)cc2C(c2ccccc2)=NC1O (centres undefined) [Oxazepam]
- collision cross section (N2) [1]: 162.3 Å²

SMILES: OC(CCN1CCCCC1)(c1ccccc1)C1C[C@H]2C=C[C@@H]1C2 (some centres undefined) [Biperiden]
- collision cross section (N2) [1]: 177.7 Å²

SMILES: O=C1C[N+]([O-])=C(c2ccccc2)c2cc(Cl)ccc2N1 [Demoxepam]
- collision cross section (N2) [1]: 161.7 Å²

SMILES: CN1C(=O)CN=C(c2ccccc2)c2cc(Cl)ccc21 [Diazepam]
- collision cross section (N2) [1]: 164.2 Å²

SMILES: C[C@@H](N)Cc1c2ccoc2c(Br)c2ccoc12 [Bromodragonfly]
- collision cross section (N2) [1]: 158.1 Å²

SMILES: CCOC(=O)C(c1ccccc1)C1CCCCN1 (centres undefined) [Ethylphenidate]
- collision cross section (N2) [1]: 159.5 Å²

SMILES: O=C1Nc2ccc(Br)cc2C(c2ccccn2)=NC1O (centres undefined) [3-Hydroxybromazepam]
- collision cross section (N2) [1]: 161 Å²

SMILES: NC1(c2ccccc2Cl)CCCCC1=O (centres undefined) [Ketamine-M nor]
- collision cross section (N2) [1]: 147.1 Å²

SMILES: CN1C(=O)CC[C@H]1c1cccnc1 [Cotinine]
- collision cross section (N2) [1]: 140.7 Å²

SMILES: CCN(C)C(=O)Oc1cccc([C@H](C)N(C)C)c1 [Rivastigmine]
- collision cross section (N2) [1]: 165 Å²

SMILES: O=C1CN=C(c2ccccc2)c2cc(Cl)ccc2N1 [Diazepam-M N-desmethyl]
- collision cross section (N2) [1]: 160.1 Å²

SMILES: O=C1CC(=O)N(c2ccccc2)c2cc(Cl)ccc2N1 [Clobazam-M nor]
- collision cross section (N2) [1]: 161.7 Å²

SMILES: CC(C)c1c(C(=O)Nc2ccccc2)c(-c2ccccc2)c(-c2ccc(F)cc2)n1CC[C@@H](O)C[C@@H](O)CC(=O)O [Atorvastatin]
- collision cross section (N2) [1]: 233 Å²

SMILES: O=C1C[C@@H]2OCC=C3CN4CC[C@]56c7ccccc7N1[C@H]5[C@H]2[C@H]3C[C@H]46 [Strychnine]
- collision cross section (N2) [1]: 172 Å²

SMILES: CNC1(c2ccccc2Cl)CCCCC1=O (centres undefined) [Ketamine]
- collision cross section (N2) [1]: 149.2 Å²

SMILES: CNC(C)C(=O)c1ccc(F)cc1 (centres undefined) [Flephedrone]
- collision cross section (N2) [1]: 139.8 Å²

SMILES: O=C1Nc2ccc(Cl)cc2C(c2ccccc2Cl)=NC1O (centres undefined) [Lorazepam]
- collision cross section (N2) [1]: 165.8 Å²

SMILES: COc1ccc2c3c1O[C@H]1[C@@H](O)C=C[C@H]4[C@@H](C2)N(C)CC[C@@]341 [Codeine]
- collision cross section (N2) [1]: 168.2 Å²

SMILES: COc1ccc2c3c1O[C@H]1C(=O)CC[C@@]4(O)[C@@H](C2)N(C)CC[C@]314 [Oxycodone]
- collision cross section (N2) [1]: 168.3 Å²

SMILES: CCOC(=O)CC(SP(=S)(OC)OC)C(=O)OCC (centres undefined) [Malathion]
- collision cross section (N2) [1]: 165.9 Å²

SMILES: O=C(O)COCCN1CCN(C(c2ccccc2)c2ccc(Cl)cc2)CC1 (centres undefined) [Cetirizine]
- collision cross section (N2) [1]: 200.8 Å²

Second part, the compound after the results:

- collision cross section (N2) [1]: 164.5 Å²
SMILES: CNCCC=C1c2ccccc2CCc2ccccc21 [Triptyline-M nor]

- collision cross section (N2) [1]: 193.7 Å²
SMILES: O=C(CCCN1CCC(O)(c2ccc(Cl)cc2)CC1)c1ccc(F)cc1 [Haloperidol]

- collision cross section (N2) [1]: 162.1 Å²
SMILES: CNS(=O)(=O)Cc1ccc2[nH]cc(CCN(C)C)c2c1 [Sumatriptan]

- collision cross section (N2) [1]: 171 Å²
SMILES: CNCC[C@H](Oc1cccc2ccccc12)c1cccs1 [Duloxetine]

- collision cross section (N2) ([2]; [M+HCOO]-): 241.4 Å²
- collision cross section (N2) ([2]; [M+H]+): 237.9 Å²
- collision cross section (N2) ([2]; [M+Na]+): 240.8 Å²
- collision cross section (N2) ([3]; [M+H]+): 235.7 Å²
- collision cross section (N2) [4]: 240.7 Å²
SMILES: CCCCCCCCCCCCCCCCCC(=O)O[C@H](CO)COP(=O)([O-])OCC[N+](C)(C)C [LPC(18:0)]

- collision cross section (N2) [1]: 187.2 Å²
SMILES: CN(C/C=C/C#CC(C)(C)C)Cc1cccc2ccccc12 [Terbinafine]

- collision cross section (N2) [1]: 163.1 Å²
SMILES: NCCCC12CCC(c3ccccc31)c1ccccc12 [Maprotiline-M N-desmethyl]

- collision cross section (N2) [1]: 189.2 Å²
SMILES: CCC(=O)NS(=O)(=O)c1ccc(-c2c(-c3ccccc3)noc2C)cc1 [Parecoxib]

- collision cross section (N2) [1]: 151 Å²
SMILES: c1cnc2cc3c(cc2n1)[C@@H]1CNC[C@H]3C1 [Varenicline]

- collision cross section (N2) [1]: 170.9 Å²
SMILES: CN1C(C(=O)Nc2ccccn2)=C(O)c2ccccc2S1(=O)=O [Piroxicam]

- collision cross section (N2) [1]: 200.8 Å²
SMILES: CCCCC1=NC2(CCCC2)C(=O)N1Cc1ccc(-c2ccccc2-c2nn[nH]n2)cc1 [Irbesartan]

- collision cross section (N2) [1]: 197.4 Å²
SMILES: OCCOCCN1CCN(C(c2ccccc2)c2ccc(Cl)cc2)CC1 (centres undefined) [Hydroxyzine]

- collision cross section (N2) [1]: 184.9 Å²
SMILES: CSc1ccc2c(c1)N(CCC1CCCCN1C)c1ccccc1S2 (centres undefined) [Thioridazine]

- collision cross section (N2) [1]: 192.7 Å²
SMILES: COc1cc2nc(N3CCN(C(=O)c4ccco4)CC3)nc(N)c2cc1OC [Prazosin]

- collision cross section (N2) [1]: 182.2 Å²
SMILES: CCOC(=O)C1=C(C)NC(C)=C(C(=O)OC)C1c1cccc([N+](=O)[O-])c1 (centres undefined) [Nitrendipine]

- collision cross section (N2) [1]: 132.4 Å²
SMILES: Cc1ncc([N+](=O)[O-])n1CCO [Metronidazole]

- collision cross section (N2) [1]: 173.9 Å²
SMILES: Cc1cnc(NC(=O)C2=C(O)c3ccccc3S(=O)(=O)N2C)s1 [Meloxicam]

- collision cross section (N2) [1]: 151 Å²
SMILES: Cc1cc(NS(=O)(=O)c2ccc(N)cc2)no1 [Sulfamethoxazole]

- collision cross section (N2) [1]: 186.4 Å²
SMILES: N#Cc1ccc2c(c1)N(CCCN1CCC(O)CC1)c1ccccc1S2 [Periciazine]

- collision cross section (N2) [1]: 179.5 Å²
SMILES: COc1ccc2c(c1)c(CC(=O)O)c(C)n2C(=O)c1ccc(Cl)cc1 [Indomethacin]

- collision cross section (N2) [1]: 185.6 Å²
SMILES: CC1Cc2ccccc2N1NC(=O)c1ccc(Cl)c(S(N)(=O)=O)c1 (centres undefined) [Indapamide]

- collision cross section (N2) [1]: 170.8 Å²
SMILES: COc1cc(Cc2cnc(N)nc2N)cc(OC)c1OC [Trimethoprim]

- collision cross section (N2) [1]: 202.9 Å²
SMILES: OCc1cc([C@@H](O)CNCCCCCCOCCCCc2ccccc2)ccc1O [Salmeterol]

- collision cross section (N2) [1]: 169.6 Å²
SMILES: COc1ccc(CN(CCN(C)C)c2ccccn2)cc1 [Mepyramine]

- collision cross section (N2) [1]: 196.2 Å²
SMILES: CCCCOc1cc(C(=O)NCCN(CC)CC)c2ccccc2n1 [Dibucaine]

- collision cross section (N2) ([2]; [M+H]+): 291.6 Å²
- collision cross section (N2) ([2]; [M+NH4]+): 292.9 Å²
- collision cross section (N2) ([2]; [M-H]-): 282.4 Å²
- collision cross section (N2) ([3]; [M-H]-): 282.4 Å²
SMILES: CCCCC/C=C\C/C=C\CCCCCCCCCCCC(=O)O[C@H](COC(=O)CCCCCCCCCCC)COP(=O)(O)O[C@H]1C(O)C(O)C(O)[C@@H](O)C1O (some centres undefined) [PI(34:2)]

- collision cross section (N2) ([2]; [M-H]-): 266.2 Å²
- collision cross section (N2) ([3]; [M+Na]+): 275.1 Å²
SMILES: CCCC/C=C\CCCCCCCC(=O)OC[C@H](COP(=O)(O)OC[C@@H](O)CO)OC(=O)CCCCCCCCC/C=C\C/C=C\CCCCC [PG(34:3)]

- collision cross section (N2) ([2]; [M+H]+): 280.2 Å²
- collision cross section (N2) ([2]; [M-H]-): 270.6 Å²
- collision cross section (N2) ([3]; [M+H]+): 278.3 Å²
- collision cross section (N2) ([3]; [M+Na]+): 279.4 Å²
- collision cross section (N2) ([3]; [M-H]-): 268.7 Å²
SMILES: CC/C=C\C/C=C\C/C=C\C/C=C\C/C=C\CCCC(=O)O[C@H](CO/C=C\CCCCCCCCCCCCCCCC)COP(=O)(O)OCCN [PE(p38:5)]

- collision cross section (N2) ([2]; [M+H]+): 289.3 Å²
- collision cross section (N2) ([2]; [M+NH4]+): 290.2 Å²
- collision cross section (N2) ([2]; [M+Na]+): 286 Å²
- collision cross section (N2) ([3]; [M+Na]+): 284 Å²
- collision cross section (N2) ([3]; [M-H]-): 275.6 Å²
SMILES: CC/C=C\C/C=C\C/C=C\C/C=C\C/C=C\C/C=C\CCC(=O)O[C@H](COC(=O)CCCCCCCCCCCCCCC)COP(=O)(O)OC[C@@H](O)CO [PG(38:6)]

- collision cross section (N2) ([2]; [M+Na]+): 227.5 Å²
- collision cross section (N2) ([2]; [M-H]-): 214.1 Å²
- collision cross section (N2) ([3]; [M+H]+): 220.8 Å²
- collision cross section (N2) ([3]; [M+Na]+): 224.8 Å²
- collision cross section (N2) ([3]; [M-H]-): 212.9 Å²
SMILES: CCCCCCCCCCCCCCCCCC(=O)O[C@H](CO)COP(=O)(O)OCCN [LPE(18:0)]

- collision cross section (N2) ([2]; [M+H]+): 271 Å²
- collision cross section (N2) ([2]; [M+NH4]+): 271.2 Å²
- collision cross section (N2) ([2]; [M+Na]+): 268.5 Å²
- collision cross section (N2) ([2]; [M-H]-): 255.6 Å²
- collision cross section (N2) ([3]; [M-H]-): 254.7 Å²
SMILES: CCCCCCCC/C=C\CCCCCCCCCC(=O)O[C@H](COC(=O)CCCCCCCCCCCCC)COP(=O)(O)O [PA(34:1)]

- collision cross section (N2) ([2]; [M+H]+): 270 Å²
- collision cross section (N2) ([2]; [M-H]-): 261.1 Å²
- collision cross section (N2) ([3]; [M+H]+): 271.8 Å²
SMILES: CCCCC/C=C\C/C=C\CCCCCCCC(=O)O[C@H](CO/C=C\CCCCCCCCCCCCCC)COP(=O)(O)OCCN [PE(p34:2)]
